From the NIST ThermoML archive (doi:10.1021/je900725w)
± gives the expanded uncertainty stated by the source.

Columns and labels:
[1] = wn = mass fraction of the nth substance listed; settings: 101 kPa, Liquid; for viscosity: Capillary tube (Ostwald / Ubbelohde) method; for mass density: Vibrating tube method
[2] = relative permittivity at zero frequency (dimensionless); wn = mass fraction of the nth substance listed; settings: 101 kPa, Liquid, Parallel plate capacitor
[3] = 308.15 K, 101.33 kPa, Liquid

CCOCCO [2-ethoxyethan-1-ol] + O
viscosity ([1]; 308.15 K, w1 = 0.25): 1.843 ± 0.02 mPa·s
viscosity ([1]; 308.15 K, w1 = 0.4): 1.955 ± 0.018 mPa·s
viscosity ([1]; 308.15 K, w1 = 0.5): 1.923 ± 0.018 mPa·s
mass density ([1]; 308.15 K, w1 = 0.25): 997.58 ± 0.4 kg/m3
mass density ([1]; 308.15 K, w1 = 0.4): 997.47 ± 0.41 kg/m3
mass density ([1]; 308.15 K, w1 = 0.5): 993.61 ± 0.41 kg/m3
viscosity ([1]; 313.15 K, w1 = 0.25): 1.529 ± 0.017 mPa·s
viscosity ([1]; 313.15 K, w1 = 0.4): 1.702 ± 0.018 mPa·s
viscosity ([1]; 313.15 K, w1 = 0.5): 1.72 ± 0.017 mPa·s
mass density ([1]; 313.15 K, w1 = 0.25): 992.45 ± 0.4 kg/m3
mass density ([1]; 313.15 K, w1 = 0.4): 991.01 ± 0.41 kg/m3
mass density ([1]; 313.15 K, w1 = 0.5): 985.14 ± 0.41 kg/m3
viscosity ([1]; 318.15 K, w1 = 0.25): 1.274 ± 0.014 mPa·s
viscosity ([1]; 318.15 K, w1 = 0.4): 1.427 ± 0.015 mPa·s
viscosity ([1]; 318.15 K, w1 = 0.5): 1.455 ± 0.015 mPa·s
mass density ([1]; 318.15 K, w1 = 0.25): 988.07 ± 0.4 kg/m3
mass density ([1]; 318.15 K, w1 = 0.4): 986.96 ± 0.4 kg/m3
mass density ([1]; 318.15 K, w1 = 0.5): 980.04 ± 0.41 kg/m3
viscosity ([1]; 323.15 K, w1 = 0.25): 1.092 ± 0.012 mPa·s
viscosity ([1]; 323.15 K, w1 = 0.4): 1.232 ± 0.013 mPa·s
viscosity ([1]; 323.15 K, w1 = 0.5): 1.276 ± 0.013 mPa·s
mass density ([1]; 323.15 K, w1 = 0.25): 983.94 ± 0.4 kg/m3
mass density ([1]; 323.15 K, w1 = 0.4): 983.78 ± 0.4 kg/m3
mass density ([1]; 323.15 K, w1 = 0.5): 976.1 ± 0.4 kg/m3
relative permittivity at zero frequency ([2]; 308.15 K, w1 = 0.25): 60.13 ± 0.01
relative permittivity at zero frequency ([2]; 308.15 K, w1 = 0.4): 50.54 ± 0.01
relative permittivity at zero frequency ([2]; 308.15 K, w1 = 0.5): 44.3 ± 0.01
relative permittivity at zero frequency ([2]; 313.15 K, w1 = 0.25): 58.7 ± 0.01
relative permittivity at zero frequency ([2]; 313.15 K, w1 = 0.4): 49.28 ± 0.01
relative permittivity at zero frequency ([2]; 313.15 K, w1 = 0.5): 43.03 ± 0.01
relative permittivity at zero frequency ([2]; 318.15 K, w1 = 0.25): 57.37 ± 0.01
relative permittivity at zero frequency ([2]; 318.15 K, w1 = 0.4): 48.14 ± 0.01
relative permittivity at zero frequency ([2]; 318.15 K, w1 = 0.5): 41.95 ± 0.01
relative permittivity at zero frequency ([2]; 323.15 K, w1 = 0.25): 56.11 ± 0.01
relative permittivity at zero frequency ([2]; 323.15 K, w1 = 0.4): 47.1 ± 0.01
relative permittivity at zero frequency ([2]; 323.15 K, w1 = 0.5): 40.96 ± 0.01

CCOCCO [2-ethoxyethan-1-ol]
mass density [3]: 924.97 ± 0.61 kg/m3
viscosity ([3]; Capillary tube (Ostwald / Ubbelohde) method): 1.828 ± 0.018 mPa·s
